Laboratory results published in US20250108100A1, “C-TERMINAL FRAGMENT OF APOLIPOPROTEIN E AND APPLICATION THEREOF IN INHIBITING y-SECRETASE ACTIVITY” (SYNPHATEC (SHANGHAI) BIOPHARMACEUTICAL TECHNOLOGY CO., LTD., priority 2022, published 2025).
Entries after “also recorded” stand apart in the source; their conditions may differ.

Experiments:
[1] = test system: human APP co-expressed in HEK 293T cells; assay: α-CTF produced by APP co-expressed in HEK 293T cells (Western blot); type: cell-based; settings: for α-CTF produced by co-expressed APP: Western blot, vs GFP control
Method: • a) A plasmid expressing the target protein in mammalian cells was constructed, and the protein expression promoter is CAG. • b) The target protein was expressed in HEK 293T cell line. Cells were subcultured one day before transfection, and transfection was performed when the degree of cell adhesion reached 70%-80%. The transfection reagent was lipofectamine2000 (ThermoFisher). • c) 4-6 hours post transfection, the medium were replaced with fresh cell culture medium. • d) 36-48 hours post transfection, the cells were lysed (10% 1M tris-HCl (pH=6.8), 4% SDS, 20% glycerol, 0.01% bromophenol blue), and the protein samples were collected and used for Western blot or stored in a −80° C. freezer. • e) Polyacrylamide gel electrophoresis. Before protein loading, the protein was boiled at 98° C. for 10 min, and then centrifuged at 12000 rpm for 10 min. Electrophoresis: 80V for the upper stacking gel; 120V for the lower separating gel. • f) Protein transfer. The filter paper was soaked in the electrophoresis solution before use, and the PVDF membrane was put in methanol for 10s to activate, and the gel after electrophoresis was taken out from the electrophoresis tank, put in the order of filter paper—PVD membrane—gel-filter paper from bottom to top, and they were put into the transfer instrument, with transferring in constant current at 0.1 A for 70 min. • g) Blocking and antibody incubation: the transferred PVDF membrane was placed in 5% BSA/TBST blocking solution, and blocked on a shaker at room temperature for 1 hour. The primary antibody was used to incubate at 4° C. overnight on a shaker (12-16 h); 1×TBST was used to wash three times, once every 10 minutes; the secondary antibody was used to incubate, shaked at room temperature for 1-2 h; 1×TBST was used to wash three times, once every 10 minutes. • h) Imaging by development: development was performed with ECL chemiluminescence hypersensitive chromogenic reagent.
(§1) Plasmids were transfected in HEK 293T or N2A cells for 36-48 hours and then lysed in cell lysis buffer [10% 1M tris-HCl (pH=6.8), 4% SDS, 20% glycerol, 0.01% bromophenol blue]. Lysates were shaken at room temperature for 10 min, then boiled for 10 min, and centrifuged at 12,000×g for 10 min. Proteins were run on 8% or 12% Tris-glycine SDS-PAGE and transferred to PVDF membranes (Life Technologies). Samples were incubated overnight at 4° C. with primary antibody diluted in 5% BSA buffer (in 1×TBST). After washing 3 times with 1×TBST, they were incubated with secondary antibody diluted in 5% BSA buffer (in 1×TBST) for 2 hours at room temperature. Finally, after washing 3 times with 1×TBST, the signal was detected by ECL Western blotting substrate (Solarbio, PE0010).
(§2) Data were analyzed by GraphPad Prism software (v6) using unpaired, paired, or one-sample t-tests. Aβ40 and Aβ42 levels were normalized to the corresponding GFP controls. α-CTF levels were normalized to FL-APP and corresponding GFP controls. All data are represented as mean±SEM. Statistical significance was defined as p<0.05. One, two, three and four stars (*) in the graph indicate p-values <0.05, <0.01, <0.001 and <0.0001, respectively.

N100 (NOTCH fragment) = assay: γ-cleavage of NOTCH fragment N100 in HEK 293T cells co-expressing γ-secretase (Western blot); type: cell-based; settings: N100-V5 and γ-secretase, PF03084014 at 1 uM
Method: as §1

APLP1 = assay: γ-cleavage of APLP1 expressed in HEK 293T cells (Western blot); type: cell-based; settings: PF03084014 at 1 μM
Method: (§3) • a) A plasmid expressing the target protein in mammalian cells was constructed, and the protein expression promoter is CAG. • b) The target protein was expressed in HEK 293T cell line. Cells were subcultured one day before transfection, and transfection was performed when the degree of cell adhesion reached 70%-80%. The transfection reagent was lipofectamine2000 (ThermoFisher). • c) 4-6 hours post transfection, the medium were replaced with fresh cell culture medium. • d) 36-48 hours post transfection, the cells were lysed (10% 1M tris-HCl (pH=6.8), 4% SDS, 20% glycerol, 0.01% bromophenol blue), and the protein samples were collected and used for Western blot or stored in a −80° C. freezer. • e) Polyacrylamide gel electrophoresis. Before protein loading, the protein was boiled at 98° C. for 10 min, and then centrifuged at 12000 rpm for 10 min. Electrophoresis: 80V for the upper stacking gel; 120V for the lower separating gel. • f) Protein transfer. […]
Plasmids were transfected in HEK 293T or N2A cells for 36-48 hours and then lysed in cell lysis buffer [10% 1M tris-HCl (pH=6.8), 4% SDS, 20% glycerol, 0.01% bromophenol blue]. […] Finally, after washing 3 times with 1×TBST, the signal was detected by ECL Western blotting substrate (Solarbio, PE0010).

[2] = test system: endogenously expressed APP in primary cultured mouse neurons; assay: APP metabolite ~14 kD CTF in primary cultured mouse neurons (Western blot); type: cell-based; settings: PF03084014 at 1 uM
human γ-secretase = target: T1, human γ-secretase (Homo sapiens, UniProt P49768); assay: Purified system: cleavage of purified β-CTF by purified γ-secretase to Aβ40 (ELISA); type: biochemical
T1 construct: full-length PS1, FL-PS1; N-terminal fragment of PS1, PS1 NTF; C-terminal fragment of PS1, PS1 CTF; made in house; host or cells: HEK 293T

[3] = test system: γ-secretase (PS1, PS2) knockout HEK 293T cells; assay: PS1 KO, PS2 KO and PS1/2 dKO HEK 293T cell lines: α-CTF and Aβ40; type: cell-based, human; settings: PS1 single knockout HEK 293T cells
Method: as §3

[4] = test system: human APP and β-secretase co-expressed in HEK 293T cells; assay: HEK 293T cells co-expressing APP and β-secretase (BACE1): Aβ ELISA and β-CTF Western blot; type: cell-based; settings: APP and β-secretase co-expressed, ELISA, vs GFP control
Method: The experiment was performed according to the standard procedure in the ELISA analysis kit of Invitrogen Company. • a) The target protein was expressed in HEK 293T cell line. Cells were subcultured one day before transfection, and transfection was performed when the degree of cell adhesion reached 70%-80%. The transfection reagent was lipofectamine2000 (ThermoFisher). • b) 4-6 hours post transfection, medium were replaced with fresh cell culture medium. • c) 36-48 hours post transfection, the cell culture medium was collected, and then the ELISA process was performed or the cell culture medium was frozen in a −80° C. refrigerator. • d) 50 μl of standard samples and experimental samples were added to each well of the 96-well plate. • e) 50 μl of human-derived Aβ40 or Aβ42 or mouse-derived Aβ40 detection antibody was added to each well of the 96-well plate. • f) The above samples were shaken gently and placed at room temperature for 3 hours. • g) The liquid in the well were removed, and the plate was washed 4 times with 1× wash buffer. • h) 100 μl of the buffer containing 1× anti-Rabbit IgG HRP was added. • i) The plate was shaken gently and placed at room temperature for […]. • j) The liquid in the well were removed, and the well was washed 4 times with 1× wash buffer. • k) 100 μl of Stabilized Chromogen was added to each well, and the plate was placed in the dark for 30 minutes at room temperature. • l) 100 μl of Stop Solution was added to each well. • m) The absorbance at 450 nm was measured with a microplate reader. 2.4 qRT-PCR
48 hours after transfection of HEK 293T cells and N2A cells, or 4.5 days after lentivirus infection of neurons, media and lysates were collected. Aβ40 and Aβ42 in the culture medium and cell lysates were detected by an Aβ ELISA kit as indicated in the protocol. (Invitrogen Technology; KHB3481 for human Aβ40, KHB3441 for human Aβ42 and KMB3481 for mouse Aβ40).
as §2

PS2 = target: T2, PS2 (Homo sapiens, UniProt P49810); assay: ApoE2-APEX2 proximity labeling of co-expressed PS2 in HEK 293T cells; type: binding
T2 construct: expressed in transfected cells; host or cells: HEK 293T
Method: (§4) A method for detecting protein interactions in living cells by targeting APEX2 was applied as previously described (Hung et al., 2016). Approximately 30 hours after transfection with APEX2 plasmids via Lipofectamine2000 (Invitrogen Technology), HEK 293T cells were incubated in 1 ml of complete medium with or without 250 uM biotinphenol (BP) for 30 minutes at 37° C. Cells were treated with 1 mM H2O2 for 1 min and cells were washed 3 times in quencher solution (10 mM sodium ascorbate, 5 mM Trolox and 10 mM sodium azide solution in 1×DPBS). Cells were lysed in RIPA lysis buffer (1× protein inhibitor cocktail, 1 mM PMSF and 10 mM sodium ascorbate, 5 mM Trolox and 10 mM sodium azide). The lysate was sonicated and centrifuged on ice (12,000×g, 4° C., 10 min), and the supernatant was incubated with streptavidin magnetic beads overnight at 4° C. The beads were collected using a magnetic rack and washed with a series of buffers (twice with RIPA buffer, once with 1M KCl, once with 0.1M Na2CO3, twice with 2 M urea in 10 mM Tris-HCl, pH 8.0, and twice with RIPA lysis buffer. Biotinylated proteins were eluted from the beads by boiling each sample in loading buffer comprising 2 mM biotin and 20 mM DTT for 10 min, and the eluates were collected. Samples proceed to Western blot.

ADAM10 (α-secretase) = target: T3, ADAM10 (α-secretase) (Homo sapiens, UniProt O14672); assay: ApoE2-APEX2 proximity labeling of co-expressed ADAM10 in HEK 293T cells; type: binding
T3 construct: expressed in transfected cells; host or cells: HEK 293T
T3 sequence (O14672 214-748): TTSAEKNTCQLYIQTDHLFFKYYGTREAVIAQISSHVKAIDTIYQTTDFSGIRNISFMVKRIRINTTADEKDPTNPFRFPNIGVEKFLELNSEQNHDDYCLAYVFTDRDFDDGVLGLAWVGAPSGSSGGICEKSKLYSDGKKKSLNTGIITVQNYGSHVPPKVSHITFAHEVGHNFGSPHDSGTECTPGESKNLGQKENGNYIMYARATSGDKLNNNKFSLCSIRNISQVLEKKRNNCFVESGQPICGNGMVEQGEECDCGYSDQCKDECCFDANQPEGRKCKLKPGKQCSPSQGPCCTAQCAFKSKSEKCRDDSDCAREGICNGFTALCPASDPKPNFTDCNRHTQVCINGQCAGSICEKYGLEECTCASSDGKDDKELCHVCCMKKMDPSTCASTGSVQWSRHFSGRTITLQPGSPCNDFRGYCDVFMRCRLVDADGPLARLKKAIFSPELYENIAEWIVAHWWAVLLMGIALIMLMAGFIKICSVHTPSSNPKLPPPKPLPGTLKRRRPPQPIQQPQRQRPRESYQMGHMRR
Method: as §4

APP = assay: APEX2 proximity labeling between ApoE and APP in HEK 293T cells; type: binding, human; settings: co-expressed in HEK 293T cells
Method: as §4

[5] = test system: endogenously expressed APP; assay: APEX2 proximity labeling of endogenous APP in primary cultured neurons; type: binding; settings: primary cultured rat neurons
[6] = test system: APP co-expressed in mouse neuron cell line N2A; assay: α-CTF produced by APP co-expressed in N2A cells (Western blot); type: cell-based; settings: Western blot, vs GFP control
Method: as §1, §2

Sequence of APP (P05067 672-770 limits assumed): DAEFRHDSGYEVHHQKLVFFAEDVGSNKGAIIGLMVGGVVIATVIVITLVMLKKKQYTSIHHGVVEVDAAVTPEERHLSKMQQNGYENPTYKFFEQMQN

CNC(=O)[C@@H](NC(=O)[C@H](CCCc1ccccc1)[C@H](C)N(O)C=O)C(C)(C)C [GI254023X, reference compound]
α-CTF level after ADAM10 inhibitor ([1]; 1 μM): about 45%

CCC[C@H](N[C@H]1CCc2cc(F)cc(F)c2C1)C(=O)Nc1cn(C(C)(C)CNCC(C)(C)C)cn1 [PF03084014]
γ-secretase-dependent reduction of N100 (N100 (NOTCH fragment)): reversed this reduction | α-like CTF of APLP1 (APLP1): significantly increase the α-like CTF; also recorded: enhancing its cleavage product; also recorded: increased the α-like CTF | level of ~14 kD CTF (CTF141D) produced by APP metabolism [2]: significantly increased | generation of Aβ by γ-secretase and β-CTF (human γ-secretase; 10 μM inhibitor): can inhibit the generation of Aβ; also recorded: can be inhibited | Aβ40 produced by incubation of γ-secretase with β-CTF (human γ-secretase; Example 2, legend b49: 1 uM inhibitor): complete blocked | α-CTF in PS1 KO cells [3]: further increased α-CTF levels | α-CTF produced by APP co-expressed with PS1 ([1]; APP and PS1 co-expressed, PF03084014 at 1 μM): significantly increases α-CTF; also recorded: can increase the production of α-CTF; also recorded: also increases α-CTF

ApoA1: another apolipoprotein co-expressed with APP, apolipoprotein A1
production of Aβ40 [4]: failed to alter | α-CTF produced by co-expressed APP [1]: failed to alter the levels of α-CTF

ApoE2-APEX2: ApoE2 fused to APEX2 (ascorbate peroxidase 2) for proximity labeling
biotinylation of co-expressed PS2 (PS2): biotinylated | biotinylation of co-expressed ADAM10 (ADAM10 (α-secretase)): biotinylated | biotinylation of FL-APP and α-CTF (APP): could also be biotinylated | biotinylation of endogenously expressed APP [5]: biotinylates

ApoE2-V5: ApoE2 with tag protein V5 (SEQ ID NO: 82) at C-terminal
α-CTF produced by co-expressed APP [1]: can significantly increase the α-CTF

ApoE3: human apolipoprotein E3, full-length 299 amino acid residues, SEQ ID NO: 89
production of Aβ40 [4]: have no such effect | α-CTF produced by co-expressed APP [6]: significantly increased the α-CTF levels | α-CTF produced by co-expressed APP [1]: can significantly increase α-CTF; also recorded: significantly increased the α-CTF levels

ApoE4: human ApoE isoform ApoE4 (Arg112; Arg158)
production of Aβ40 [4]: have no such effect; also recorded: failed to alter | α-CTF produced by co-expressed APP [6]: failed to alter α-CTF levels | α-CTF produced by co-expressed APP [1]: cannot significantly change α-CTF

CT ND3CD25: SEQ ID NO: 32; ApoE CT minus 3 N-terminal and 25 C-terminal residues (EEMGSRTRDRLDEVKEQVAEVRAKLEEQAQQIRLQAEAFQARLKSWFEPLVEDMQR)
production of Aβ40 [4]: can still significantly reduce Aβ40

V5-ApoE2: ApoE2 with tag protein V5 (SEQ ID NO: 82) at N-terminal
α-CTF produced by co-expressed APP [1]: can significantly increase the α-CTF
